In patent publication US20070202058A1, “Compositions for treating gastric reflux” (priority 2006, published 2007):

Columns and labels:
[1] = system: aspirin induced gastric lesions; conditions: cited from earlier work
[2] = system: indomethacin induced gastric lesions; test: Prevention of indomethacin induced gastric lesions (U.S. Pat. No. 3,988,466, Table 2); type: in vivo; conditions: indomethacin induced gastric lesions (Table 2)
Procedure: (§1) U.S. Pat. No. 3,988,466 reports that amino acids, particularly, L-glutamine are effective for the prevention or treatment of certain experimental ulcers, induced artificially by stress or pylorus ligation, or chemically by histamine, reserpine, cortisone, or inflammatory agents when given simultaneously. Further, such prevention only occurred when the concomitant dosage of the amino acid, L-glutamine, present was 2-5 g for a dose of aspirin of 0.3-1.0 g or for 25-50 mg of indomethacin, the required dose of L-glutamine was 2 g. […] Glutamine was ineffective in prevention of indomethacin induced gastric lesions at a dose of 15.6 mg/kg (Table 2) which is equivalent to 1.1 g for an human adult (70 kg weight). No use or indication for relief of gastric distress before or after lesion formation was observed, nor could it have been in the animal model used. No use or indication for relief of gastric lesions after lesion formation was disclosed. […] Of the 24 amino acids tried at the pharmaceutically unacceptable level of 750 mg/kg (calculated to be 52.5 g of the amino acid for a 70 kg human dose), all but DL-tryptophan, L-aspartic acid, L-tyrosine, L-cysteine and L-cystine gave more than 50% inhibition of ulcers. The pH of the amino acids was not a factor in ulcer prevention, showing that “the effect of amino acids is different from that of antacids” (Col 6, lines 27-31)

[3] = system: small bowel ulcers; conditions: rats, cited from earlier work; for ulcer healing: glutamine given in a guar gum
[4] = system: indomethacin induced gastric lesions; conditions: cited from earlier work
[5] = system: aspirin induced gastric lesions; test: Prevention of aspirin induced gastric lesions (U.S. Pat. No. 3,988,466, Table 1); type: in vivo; conditions: aspirin induced gastric lesions (Table 1)
Procedure: as §1

[6] = system: gastric reflux (heartburn); test: Example 9: patient with stress-related gastric reflux takes L-lysine confection; type: in vivo, human; conditions: for effect of the patient's earlier treatments on gastric reflux / heartburn: same patient, Nexium 40 mg twice a day

## NC(=O)CC[C@H](N)C(=O)O [Glutamine, L-glutamine]
[1]; aspirin induced gastric lesions (Table 1)
  minimum effective dose: 125 mg/kg
[1]; dose of 62.5 mg/kg
  prevention of aspirin induced gastric lesions: completely ineffective
[2]
  minimum effective dose calculated for a 70 kg human: 2.2 g
[3]
  ulcer healing: no effect
[4]; dose of 15.6 mg/kg
  prevention of indomethacin induced gastric lesions: ineffective
[4]; indomethacin induced gastric lesions (Table 2)
  minimum effective dose: 31.3 mg/kg
[5]
  minimum effective dose calculated for a 70 kg human: 8.75 g

## N=C(N)NCCC[C@H](N)C(=O)O [L-arginine]
[3]; L-arginine together with yeast RNA (antagonistic)
  decrease in ulcer number: 34%
[3]
  ulcer healing: somewhat effective

## NCCCC[C@H](N)C(=O)O [L-lysine]
[6]; 1 gram dose as a carrageenan confection
  time to complete cessation of all symptoms: one
[6]; 1 gram dose as a carrageenan confection, patient with gastric reflux due to stress
  relief of heartburn: immediate relief

## COc1ccc2nc([S@@+]([O-])Cc3ncc(C)c(OC)c3C)[nH]c2c1 [Nexium, esomeprazole, reference compound]
[6]
  effect of the patient's earlier treatments on gastric reflux / heartburn: continued heartburn

## O=C([O-])[O-].[Ca+2] [calcium carbonate antacids, calcium carbonate, reference compound]
[6]
  effect of the patient's earlier treatments on gastric reflux / heartburn: ineffective
